Assay results published in US8242280B2, “Fused ring heterocycle kinase modulators” (SGX Pharmaceuticals, Inc., priority 2007, dated 2012).

Legend:
[1] = target: T1, unphosphorylated T315I Abl kinase domain (Mus musculus, UniProt P00520, T315I); assay: c-Abl T315I 0P bioassay (pyruvate kinase/lactate dehydrogenase coupled enzyme assay); format: biochemical; settings: zero phosphorylation state (0P), 10 μM ATP, read-out: AbI T315I 0P IC50
T1 construct: purified and unphosphorylated T315I Abl kinase domain; made in house; host or cells: E. coli BL21(DE3) (Codon+RIL or pSA0145 strain)
T1 sequence (P00520 242-493 T315I limits assumed): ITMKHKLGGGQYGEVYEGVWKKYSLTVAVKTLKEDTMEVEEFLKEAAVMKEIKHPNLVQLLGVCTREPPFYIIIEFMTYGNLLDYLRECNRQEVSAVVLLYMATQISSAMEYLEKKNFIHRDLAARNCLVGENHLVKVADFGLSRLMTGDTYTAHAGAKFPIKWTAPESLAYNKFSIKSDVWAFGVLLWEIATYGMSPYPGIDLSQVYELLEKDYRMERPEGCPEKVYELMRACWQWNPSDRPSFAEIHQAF
From the text: Although the first of these examples uses the kinase domain of a mutant form of Abl T315I (“Abl T315I KD”), the kinase assays may use various forms of mutant and wild type enzymes, including, for example, the entire protein, the kinase domain, or a portion thereof (e.g. Abl Y393F). The kinases used in the assays may also be of varying phosphorylation states. In the c-Abl example, a mutant kinase at a zero phosphorylation state was used. c-Abl Pyruvate Kinase/Lactate Dehydrogenase Coupled Enzyme Assay
In the c-Abl Pyruvate Kinase (PK)/Lactate Dehydrogenase (LDH) Coupled Assay the protein kinase dependant phosphorylation of a substrate peptide was coupled to the oxidation of NADH. The oxidation of NADH to NAD+ was detected by monitoring a decrease in absorbance at 340 nm.
Materials: Abl substrate peptide=EAIYAAPFAKKK (SEQ ID NO: 1)—OH (Biopeptide, San Diego, Calif.); pNADH (Sigma Cat#N-8129, FW=709.4); 2M MgC12; 1M HEPES buffer, pH 7.5; Phosphoenolpyruvate (PEP) (Sigma Cat#P-7002, FW=234); Lactate dehydrogenase (LDH) (Worthington Biochemical Cat#2756); Pyruvate Kinase (PK) (Sigma Cat#P-9136); ATP (Sigma Cat#A-3377, FW=551); Greiner 384-well UV star plate; and purified and unphosphorylated T315I Abl kinase domain.
Stock Solutions: 10 mM NADH (7.09 mg/ml in miliQH2O) made fresh daily; 10 mM Abl substrate peptide (13.4 mg/ml in miliQH2O) stored at −20° C.; 100 mM HEPES buffer, pH 7.5 (5 ml 1M stock+45 ml miliQH2O); 100 mM MgCl2 (5 ml 2M MgCl2+95 ml dH2O); 100 MM PEP (23.4 mg/ml in dH2O) stored at −20° C.; 10 mM ATP (5.51 mg/ml in dH2O) stored at −20° C. (diluted 50 μl into total of 10 ml miliQH2O daily=50 μM ATP working stock); 1000 U/ml PK (U/mg varies with lot) flash-frozen under liquid N2 and stored at −80° C.; and 1000 U/ml LDH (U/mg varies with lot) flash-frozen under liquid N2 and stored at −80° C.
Standard Assay Setup for 384-well format (50 μl reaction): 300 μM NADH; 10 mM MgCl2; 2 mM PEP; 45U/ml PK; 60 U/ml LDH; 200 μM Abl substrate peptide; 2.5 μl test compound (in DMSO); 2 μg/ml Abl kinase domain; 10 μM ATP; 100 mM HEPES buffer. Positive controls contained DMSO with no test compound. Negative controls contained 5 μl of 0.5M EDTA (50 mM in the assay). The dephosphorylated form of the c-Abl T315I mutant was used in the biochemical screening assays. The kinase reaction was initiated at time t=0 by the addition of ATP.
Activity was measured by following the time-dependent loss of NADH by absorbance spectroscopy at 340 nm. The linear portion of the resulting progress curve was then analyzed by linear regression to get the activity in absorbance units/time, reported as the slope of that best fit line (moles/unit time can be calculated from using molar extinction coefficient for NADH at 340 nm, 6250M^−1 cm^−1).
Data was evaluated using the equation: Z′=1−[3*(σ++σ−)/|μ+−μ−|](Zhang, et al., 1999 J Biomol Screening 4(2) 67-73), where μ denotes the mean and σ the standard deviation. The subscript designates positive or negative controls. The Z′ score for a robust screening assay should be ≧0.50. The typical threshold=μ+−3*σ+. Any value that falls below the threshold was designated a “hit”.
Dose response was analyzed using the equation: y=min+{(max−min)/(1+10^[compound]−logIC50)}, where y is the observed initial slope, max=the slope in the absence of inhibitor, min=the slope at infinite inhibitor, and the IC50 is the [compound] that corresponds to ½ the total observed amplitude (Amplitude=max−min).
To measure modulation, activation, or inhibition of Abl KD, a test compound was added to the assay at a range of concentrations. Inhibitors may inhibit Abl KD activity at an IC50 in the micromolar range, the nanomolar range, or, for example, in the subnanomolar range.
An open-reading frame for c-Abl was amplified from a Mus musculus (mouse) cDNA library prepared from freshly harvested mouse liver using a commercially available kit (invitrogen) by PCR using the following primers: […]
The c-Abl T315I KD (kinase domain) was purified as follows. […]

[2] = target: Ba/F3 cells, ABL1 WT (Homo sapiens, UniProt P00519); assay: 96-well XTT cell survival assay, Ba/F3 ABL1 WT; format: cell-based; settings: 72 hours, read-out: ABL1 WT XTT [Ba/F3] IC50
Description: (§1) MV4-11 and THP cells were maintained in Iscove's Modified Dulbecco's Medium supplemented with 10% fetal bovine serum (FBS) and penicillin/streptomycin, Ba/F3 cells were maintained in RPMI 1640 supplemented with 10% FBS, penicillin/streptomycin and 5 ng/ml recombinant mouse IL-3.
(§2) Compounds were tested in the following assays in duplicate.
(§3) 96-well XTT assay: Cells (e.g. BaF3 315I, M351I, or E255K cells) were grown in growth media containing various concentrations of compounds (duplicates) on a 96-well plate for 72 hours at 37° C. The starting cell number was 5000-8000 cells per well and volume was 120 μl. At the end of the 72-hour incubation, 40 μl of XTT labeling mixture (50:1 solution of sodium 3′-[1-(phenylamino-carbonyl)-3,4-tetrazolium]-bis(4-methoxy-6-nitro)benzene sulfonic acid hydrate and Electron-coupling reagent: PMS (N-methyl dibenzopyrazine methyl sulfate) were added to each well of the plate. After an additional 2-6 hours of incubation at 37° C., the absorbance reading at 405 nm with background correction at 650 nm was measured with a spectrophotometer.

[3] = target: Ba/F3 cells, ABL1 T315I (Homo sapiens, UniProt P00519, T315I, cells depend on it); assay: 96-well XTT cell survival assay, Ba/F3 ABL1 T315I; format: cell-based; settings: 72 hours, read-out: ABL1 T315I XTT [Ba/F3] IC50
Description: as §1, §2, §3

COc1ccccc1-c1c[nH]c2ncc(-c3cnc(N)c(C(O)C(=O)N(C)C)c3)cc12 (stereo not drawn)
IC50 [1]: < 50 nM
GI50 [2]: < 1000 nM
GI50 [3]: < 1000 nM

COc1ccccc1-c1n[nH]c2ncc(-c3cccc(C(N)C(=O)N4CC(O)C4)c3)cc12 (stereo not drawn)
IC50 [1]: < 50 nM
GI50 [2]: > 1000 nM
GI50 [3]: > 1000 nM

CN(C)C(=O)C(O)c1cncc(-c2cnc3[nH]cc(-c4ccccc4Cl)c3c2)c1 (stereo not drawn)
IC50 [1]: < 50 nM
GI50 [2]: < 1000 nM
GI50 [3]: < 1000 nM

COc1ccccc1-c1n[nH]c2ncc(-c3cccc(C(O)C(=O)N(C4CC4)C4CCN(C)CC4)c3)cc12 (stereo not drawn)
IC50 [1]: < 50 nM
GI50 [2]: < 1000 nM
GI50 [3]: < 1000 nM

COc1ccccc1-c1c[nH]c2ncc(-c3cncc(C(O)C(N)=O)c3)cc12 (stereo not drawn)
IC50 [1]: < 50 nM
GI50 [2]: > 1000 nM
GI50 [3]: > 1000 nM

CN(C)C(=O)C(O)c1cncc(-c2cnc3[nH]cc(-c4cccc(Cl)c4)c3c2)c1 (stereo not drawn) [drawing 431]
IC50 [1]: < 50 nM
GI50 [2]: < 1000 nM
GI50 [3]: < 1000 nM

CCc1ccccc1-c1c[nH]c2ncc(-c3cncc(C(O)C(=O)N(C)C)c3)cc12 (stereo not drawn)
IC50 [1]: < 50 nM
GI50 [2]: < 1000 nM
GI50 [3]: < 1000 nM

CN(C)C(=O)C(O)c1cncc(-c2cnc3[nH]cc(-c4ccno4)c3c2)c1 (stereo not drawn)
IC50 [1]: < 50 nM
GI50 [2]: > 1000 nM
GI50 [3]: > 1000 nM

COc1ccccc1-c1c[nH]c2ncc(-c3cccc(C(O)C(=O)N(C)CCN(C)C)n3)cc12 (stereo not drawn)
IC50 [1]: < 50 nM
GI50 [2]: > 1000 nM
GI50 [3]: > 1000 nM

CN(C)C(=O)C(O)c1cncc(-c2cnc3[nH]cc(-c4ccc(C(F)(F)F)cc4)c3c2)c1 (stereo not drawn)
IC50 [1]: 50 to 500 nM

COc1ccccc1-c1n[nH]c2ncc(-c3cccc([C@@H](C)O)c3)cc12
IC50 [1]: < 50 nM
GI50 [2]: < 1000 nM
GI50 [3]: < 1000 nM

CN(C)C(=O)C(O)c1cncc(-c2cnc3[nH]cc(-c4ccn(-c5ccccc5)n4)c3c2)c1 (stereo not drawn)
IC50 [1]: 50 to 500 nM

Cc1noc(C)c1-c1c[nH]c2ncc(-c3cncc(C(O)C(=O)N(C)C)c3)cc12 (stereo not drawn)
IC50 [1]: 50 to 500 nM

COc1ccccc1-c1c[nH]c2ncc(-c3cncc(C(O)C(=O)N(C)C)c3)cc12 (stereo not drawn)
IC50 [1]: < 50 nM
GI50 [2]: < 1000 nM
GI50 [3]: < 1000 nM

COc1ccccc1-c1n[nH]c2ncc(-c3cccc(C(OC)C(=O)N4CC(O)C4)c3)cc12 (stereo not drawn)
IC50 [1]: < 50 nM

CNC(C(=O)N1CCC(O)C1)c1cccc(-c2cnc3[nH]nc(-c4ccccc4OC)c3c2)c1 (stereo not drawn)
IC50 [1]: < 50 nM

CN(C)C(=O)C(O)c1cncc(-c2cnc3[nH]cc(-c4cnn(C)c4)c3c2)c1 (stereo not drawn)
IC50 [1]: 50 to 500 nM

COc1ccccc1-c1c[nH]c2ncc(-c3cccc(C(O)C(=O)N(C)C)c3)cc12 (stereo not drawn)
IC50 [1]: < 50 nM
GI50 [2]: < 1000 nM
GI50 [3]: < 1000 nM

COc1ccccc1-c1n[nH]c2ncc(-c3cccc(C(O)C(=O)N(C)C4CCOCC4)c3)cc12 (stereo not drawn)
IC50 [1]: < 50 nM
GI50 [2]: < 1000 nM
GI50 [3]: < 1000 nM

COc1ccccc1-c1n[nH]c2ncc(-c3cccc(C(O)C(=O)N(C)CCN(C)C)c3)cc12 (stereo not drawn)
IC50 [1]: < 50 nM
GI50 [2]: < 1000 nM
GI50 [3]: < 1000 nM
